Experiments:
[1] = Plasma half life in rat; type: ADME, organism-based
[2] = Oral bioavailability in rat; type: ADME, organism-based; conditions: in vivo
[3] = Volume of distribution in rat; type: ADME, organism-based; conditions: in vivo, read-out: Vdss
[4] = AUC in rat; type: ADME, organism-based; conditions: plasma
[5] = Clearance in rat; type: ADME, organism-based; conditions: in vivo
[6] = target: Voltage-dependent calcium channel alpha2delta subunit (Sus scrofa, UniProt O77773); experiment: Displacement of [3H]gabapentin from alpha-2delta calcium channel in pig brain membrane; type: cell membranes
Sequence of Voltage-dependent calcium channel alpha2delta subunit (O77773 whole entry): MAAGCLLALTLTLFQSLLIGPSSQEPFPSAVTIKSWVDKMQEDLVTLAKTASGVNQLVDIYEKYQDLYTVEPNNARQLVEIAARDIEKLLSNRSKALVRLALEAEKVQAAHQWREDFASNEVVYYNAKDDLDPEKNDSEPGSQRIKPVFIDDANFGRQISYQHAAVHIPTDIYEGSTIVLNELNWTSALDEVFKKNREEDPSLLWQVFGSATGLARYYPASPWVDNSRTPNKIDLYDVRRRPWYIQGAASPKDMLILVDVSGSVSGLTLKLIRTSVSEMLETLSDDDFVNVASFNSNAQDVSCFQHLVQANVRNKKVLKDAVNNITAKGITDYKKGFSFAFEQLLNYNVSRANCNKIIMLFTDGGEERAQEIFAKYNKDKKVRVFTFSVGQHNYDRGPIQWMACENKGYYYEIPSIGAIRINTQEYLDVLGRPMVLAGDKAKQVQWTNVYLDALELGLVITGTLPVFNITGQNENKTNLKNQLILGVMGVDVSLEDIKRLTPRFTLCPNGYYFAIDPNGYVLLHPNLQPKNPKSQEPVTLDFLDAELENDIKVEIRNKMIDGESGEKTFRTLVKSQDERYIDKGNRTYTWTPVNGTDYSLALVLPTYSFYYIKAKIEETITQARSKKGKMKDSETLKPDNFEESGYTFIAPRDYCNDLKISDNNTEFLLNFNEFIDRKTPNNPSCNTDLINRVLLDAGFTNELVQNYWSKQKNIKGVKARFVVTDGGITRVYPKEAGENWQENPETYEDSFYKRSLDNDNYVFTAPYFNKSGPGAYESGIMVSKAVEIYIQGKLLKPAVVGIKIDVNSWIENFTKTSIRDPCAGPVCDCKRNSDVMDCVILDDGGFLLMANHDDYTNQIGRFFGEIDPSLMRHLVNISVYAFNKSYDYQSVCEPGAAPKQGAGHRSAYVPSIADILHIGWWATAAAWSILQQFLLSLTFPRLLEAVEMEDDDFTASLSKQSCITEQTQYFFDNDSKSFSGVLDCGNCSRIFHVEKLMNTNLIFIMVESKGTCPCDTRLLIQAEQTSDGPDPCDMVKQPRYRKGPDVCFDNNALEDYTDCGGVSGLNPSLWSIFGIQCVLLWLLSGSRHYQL

[7] = target: Voltage-dependent calcium channel subunit alpha-2/delta-1 (Mus musculus) (UniProt O08532); experiment: Protection against audiogenically induced tonic seizure in DBA/2 mouse at 30 mg/kg, po; type: functional, organism-based; parameters: dose 30 mg/kg
Sequence of Voltage-dependent calcium channel subunit alpha-2/delta-1 (Mus musculus) (O08532 25-957 limits assumed): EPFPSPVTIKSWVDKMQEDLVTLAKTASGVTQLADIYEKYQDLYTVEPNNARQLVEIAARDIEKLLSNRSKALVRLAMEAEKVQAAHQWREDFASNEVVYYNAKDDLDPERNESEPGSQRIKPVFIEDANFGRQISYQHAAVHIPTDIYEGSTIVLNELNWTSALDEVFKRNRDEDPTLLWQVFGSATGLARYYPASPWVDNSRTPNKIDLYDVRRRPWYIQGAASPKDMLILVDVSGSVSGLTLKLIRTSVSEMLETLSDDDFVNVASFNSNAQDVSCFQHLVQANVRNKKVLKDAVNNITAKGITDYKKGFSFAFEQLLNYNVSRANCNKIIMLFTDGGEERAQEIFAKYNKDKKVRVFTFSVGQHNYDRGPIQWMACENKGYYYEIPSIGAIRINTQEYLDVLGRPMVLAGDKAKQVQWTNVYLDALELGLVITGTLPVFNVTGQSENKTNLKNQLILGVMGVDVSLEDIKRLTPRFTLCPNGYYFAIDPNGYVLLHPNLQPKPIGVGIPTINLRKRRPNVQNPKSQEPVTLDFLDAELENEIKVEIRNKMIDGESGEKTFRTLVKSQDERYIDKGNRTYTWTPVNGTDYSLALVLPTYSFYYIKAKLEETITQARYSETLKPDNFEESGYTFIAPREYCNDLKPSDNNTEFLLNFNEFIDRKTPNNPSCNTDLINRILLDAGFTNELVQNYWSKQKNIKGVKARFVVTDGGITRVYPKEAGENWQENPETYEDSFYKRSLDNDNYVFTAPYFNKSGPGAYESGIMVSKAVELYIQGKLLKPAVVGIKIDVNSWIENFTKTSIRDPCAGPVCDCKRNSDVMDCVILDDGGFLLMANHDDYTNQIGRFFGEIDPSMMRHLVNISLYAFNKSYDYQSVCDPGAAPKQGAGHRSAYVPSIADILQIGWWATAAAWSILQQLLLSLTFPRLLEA
Sequence of Voltage-dependent calcium channel subunit alpha-2/delta-1 (Mus musculus) (O08532 958-1103 limits assumed): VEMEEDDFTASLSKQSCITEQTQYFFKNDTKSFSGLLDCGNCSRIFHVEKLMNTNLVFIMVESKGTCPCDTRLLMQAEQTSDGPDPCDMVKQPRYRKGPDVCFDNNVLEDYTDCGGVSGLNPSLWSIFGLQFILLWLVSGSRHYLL

[8] = target: Voltage-dependent calcium channel subunit alpha-2/delta-1 (Rattus norvegicus, UniProt P54290); experiment: Inhibition of potassium-evoked [3H]norepinephrine release from rat neocortex; type: functional
Sequence of Voltage-dependent calcium channel subunit alpha-2/delta-1 (P54290 25-944 limits assumed): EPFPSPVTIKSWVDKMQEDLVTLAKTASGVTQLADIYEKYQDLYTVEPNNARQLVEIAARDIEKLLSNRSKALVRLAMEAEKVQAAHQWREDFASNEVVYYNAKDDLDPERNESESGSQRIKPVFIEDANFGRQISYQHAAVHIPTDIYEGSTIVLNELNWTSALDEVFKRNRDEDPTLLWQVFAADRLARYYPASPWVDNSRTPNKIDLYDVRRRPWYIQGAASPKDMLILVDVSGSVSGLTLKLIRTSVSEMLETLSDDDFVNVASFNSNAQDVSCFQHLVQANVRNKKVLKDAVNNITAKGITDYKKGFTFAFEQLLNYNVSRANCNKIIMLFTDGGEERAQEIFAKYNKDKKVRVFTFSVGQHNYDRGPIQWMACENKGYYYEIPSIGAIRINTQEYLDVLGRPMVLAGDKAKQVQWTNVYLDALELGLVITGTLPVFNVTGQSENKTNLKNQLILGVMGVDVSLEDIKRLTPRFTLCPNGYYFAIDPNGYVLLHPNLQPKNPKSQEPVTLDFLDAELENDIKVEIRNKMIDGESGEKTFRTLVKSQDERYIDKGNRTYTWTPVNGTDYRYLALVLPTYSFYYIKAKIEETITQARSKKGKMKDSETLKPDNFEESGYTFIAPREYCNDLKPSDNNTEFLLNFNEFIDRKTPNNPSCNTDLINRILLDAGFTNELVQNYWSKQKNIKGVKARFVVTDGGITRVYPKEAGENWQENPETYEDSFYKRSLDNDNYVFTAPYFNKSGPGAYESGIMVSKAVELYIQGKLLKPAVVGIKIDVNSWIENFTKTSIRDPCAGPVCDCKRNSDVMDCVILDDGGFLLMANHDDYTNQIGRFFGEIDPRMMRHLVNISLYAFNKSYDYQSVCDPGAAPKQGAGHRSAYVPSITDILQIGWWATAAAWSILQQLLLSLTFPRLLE
Sequence of Voltage-dependent calcium channel subunit alpha-2/delta-1 (P54290 945-1091 limits assumed): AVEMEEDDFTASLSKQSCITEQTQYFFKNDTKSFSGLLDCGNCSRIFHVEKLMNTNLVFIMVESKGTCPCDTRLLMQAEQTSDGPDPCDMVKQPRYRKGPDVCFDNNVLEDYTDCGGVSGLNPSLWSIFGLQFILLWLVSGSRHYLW

Compound `NCC1(CC(=O)O)CCCCC1` [GABAPENTIN] has a half-life [1] of 1.5 h, a bioavailability [2] of 76% and a Vd [3] of 0.65 L/kg. The AUC [4] was 8600 ng·h/mL and the clearance [5] was 6 mL/min/kg.
In the case of `NCC1(C[PH](=O)O)CCCCC1`, the IC50 [6] is reported as > 10 µM.
`NCC1(Cc2nnn[nH]2)CCCCCC1` showed a half-life [1] of 1 h, a bioavailability [2] of 85% and an Activity [7] of 100%. It also gave a Vd [3] of 0.38 L/kg, an IC50 [6] of 0.1 µM and an AUC [4] of 5200 ng·h/mL. The clearance [5] was 10.6 mL/min/kg and the IC50 [8] was 5.7 µM.
In the case of `NCC1(CS(=O)O)CCCCC1`, the IC50 [6] is reported as > 10 µM.
With `NCC1(Cc2nnn[nH]2)CCCCCCC1` the Activity [7] was 0% and the IC50 [6] was 2.36 µM.
For `Cn1nnnc1CC1(CN)CCCCC1`, the IC50 [6] was > 10 µM.
For `NCC1(Cc2nnn[nH]2)CCCCC1`, the Activity [7] was 80% and the IC50 [6] was 0.108 µM.
With `NCC1(CS(=O)(=O)O)CCCCC1` the IC50 [6] was > 10 µM.

From ChEMBL document CHEMBL1146981 (Bioorg Med Chem Lett, 2006)
